From PMC7997574, “Lead Optimization of Benzoxazolone Carboxamides as Orally Bioavailable and CNS Penetrant Acid Ceramidase Inhibitors” (Journal of Medicinal Chemistry, 2020)
Converted amounts (≈) assume the structure as drawn.

Tests used:
[1] = Aqueous kinetic solubility assay; format: physicochemical; settings: PBS, pH 7.4
Outline: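 Kinetic solubility from 10 mM MeCN stock spiked into PBS pH 7.4 at 250 μM target, shaken 1 h at 25 °C, then centrifuged. Dissolved compound in supernatant quantified by UPLC/MS with UV at 215 nm; mean of ≥2 experiments.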

AC = biological target: T1, AC (Homo sapiens, UniProt Q13510); assay: hAC LC/MS-based activity assay in SH-SY5Y cells; format: cell-based; set-up: host or cells: SH-SY5Y
T1 sequence (Q13510 22-395): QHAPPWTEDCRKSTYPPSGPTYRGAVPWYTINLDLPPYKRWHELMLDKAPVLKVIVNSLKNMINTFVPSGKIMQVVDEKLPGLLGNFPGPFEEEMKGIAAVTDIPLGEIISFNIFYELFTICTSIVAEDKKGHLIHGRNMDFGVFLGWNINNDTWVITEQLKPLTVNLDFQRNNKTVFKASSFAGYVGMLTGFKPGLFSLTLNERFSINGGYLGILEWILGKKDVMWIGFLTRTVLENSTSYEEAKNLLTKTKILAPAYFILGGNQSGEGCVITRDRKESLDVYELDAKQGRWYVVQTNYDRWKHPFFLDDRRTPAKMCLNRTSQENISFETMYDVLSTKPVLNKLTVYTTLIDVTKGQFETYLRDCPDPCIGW
Protocol: SH-SY5Y cells were purchased from Sigma Aldrich (Italy) and cultured in Dulbecco’s modified Eagle’s medium (DMEM) containing 10% fetal bovine serum at 37 °C and 5% CO2. Drugs were dissolved in DMSO (10 mM) and diluted in the cell culture medium with reduced serum (1%) for cell treatments.
hAC activity measurement was performed as previously described.[36],[37] Total lysates from cells were diluted in assay buffer (100 mM sodium phosphate, 0.1% Nonidet P-40, 150 mM NaCl, 3 mM DTT, 100 mM sodium citrate, pH 4.5). Reactions were started by the addition of 50 μM N-lauroyl ceramide (Nu-Chek Prep, Elysian, MN) and carried out for 1 h at 37 °C. Reactions were stopped by addition of a mixture of CHCl3/MeOH (2:1) containing 1 nmol of 11-lauroleic acid (Nu-Chek Prep). The organic phases were collected, dried under nitrogen, and analyzed by UPLC/MS (ACQUITY, Waters) in the negative-ion mode monitoring the reaction product (lauric acid, m/z: 199) using 11-lauroleic acid as internal standard. […] The [M–H]^− ion was monitored in the selected-ion monitoring mode (m/z values: lauric acid 199, 11-lauroleic acid 197.35). […]

GalSph (d18:1) = assay: Brain GalSph levels in Twitcher mice (Krabbe's disease model); format: in vivo, mouse; settings: for reduction of GalSph (d18:1) levels in the brains: Twitcher mice; for GalSph(d18:1) change (Figure 8): brain
Protocol: 4L;C* mice (C57BL/6 J/129SvEV) were randomly assigned to three treatment groups (N = 4–8 with mixed males and females) and dosed once a day i.p. with 90 or 30 mg kg^–1 of 22m or vehicle. Treatment started at 5 days of age for a duration of 14 days. The application volume was set to 10 μL per gram of body weight, and dosage was adjusted accordingly. Animals of all groups were sacrificed 1 h after the last dose, and the brain tissues and plasma were collected. The left brain containing cortex, cerebella, thalamus, and brainstem was analyzed for SphL levels by MS. Data were analyzed using the Student t test. The right brain containing cortex, cerebella, thalamus, and brainstem and plasma were analyzed for drug levels of 22m. All mice were housed under pathogen-free conditions in the animal facility, and animal experiment was performed according to the IACUC approved protocol (2018-0056) at Cincinnati Children’s Hospital Research Foundation. Wild Type (WT) (GALC+/+) and Twitcher (Twi) (GALC–/−) mice were genotyped by PCR as previously described.[58] Twi mice were randomly assigned to three treatment groups (N = 3 males + N = 3 females for each group) and dosed once a day i.p. with 90 or 30 mg kg^–122m or vehicle for a duration of 20 days. Treatment started at 10 days of age. The application volume was set to 10 μL per gram of body weight, and dosage was adjusted accordingly. Two groups (N = 3 males + N = 3 females for each group) of WT controls treated with vehicle or high dose (90 mg kg^–1) of 22m were also included in the study. Animals of all groups were sacrificed 1 h after the last dose, and the brain tissues and plasma were collected. The left brain containing cortex, cerebella, thalamus, and brainstem was analyzed for SphL levels by MS. Data were analyzed using the Student t test. The right brain containing cortex, cerebella, thalamus, and brainstem and plasma were analyzed for drug levels of 22m. All animal work in this study was performed in accordance with approved animal protocols from the Animal Care and Use Committee at the University of Illinois at Chicago.

For `CC(C)CNC(=O)n1c(=O)oc2cc(C3CCN(C)CC3)ccc21` [22m, N-Isobutyl-6-(1-methyl-4-piperidyl)-2-oxo-1,3-benzoxazole-3-carboxamide], the solubility at 1 h [1] was 240 µM (≈ 79.5 µg/mL), the “AC activity in SH-SY5Y cells” value (AC; 1, 2.5, 5, 10 μM, 30 min, 1 h, 3 h, 6 h) was “concentration- (Figure 5A) and time-dependent reduction of AC activity” and the “persistence of effect on AC activity inhibition and SphL” value (AC; SH-SY5Y cells, 10 μM) was “persisted for up to 6 h”. The “reduction of GalSph (d18:1) levels in the brains” value (GalSph (d18:1); 30 mg kg^–1 i.p. once daily for 20 days) was 41%, the “reduction of GalSph (d18:1) levels in the brains” value (GalSph (d18:1); 90 mg kg^–1 i.p. once daily for 20 days) was 72% and the “GalSph(d18:1) change (Figure 8)” value (GalSph (d18:1); Twi 30 mg/kg i.p.) was -41%. The “GalSph(d18:1) change (Figure 8)” value (GalSph (d18:1); Twi 90 mg/kg i.p.) was -72%.
